Laboratory results as given in patent US20210030703A1, “USE OF CALORIC RESTRICTION MIMETICS FOR POTENTIATING CHEMO-IMMUNOTHERAPY FOR THE TREATMENT OF CANCERS” (INSERM (INSTITUT NATIONAL DE LA SANTÉ ET DE LA RECHERCHE …, priority 2018, published 2021).

Assays:
[1] = background, reference (9); cited from earlier work
MCA205 fibrosarcoma [2] = assay: Subcutaneous MCA205 fibrosarcoma: tumor growth, cure and survival under chemo-immunotherapy; assay type: in vivo, C57B1/6 mice
MCA205 fibrosarcoma [3] = assay: as above; assay type: in vivo, C57B1/6 mice; settings: for Efficacy of MTX + ICIs (anti-PD-1 plus anti-CTLA-4) chemo-immunotherapy when the CRM is added: figure legends FIG. 2, 3, 4, 6
Description: Mouse strain and housing. Six- to 8-week-old wild-type female C57B1/6 mice were obtained from Envigo RMS SARL (Gannat, France). Animals were maintained in specific pathogen-free conditions in a temperature-controlled environment with 12 h light, 12 h dark cycles and received food and water ad libitum (unless precised otherwise). Animal experiments were in compliance with the EU Directive 63/2010 and approved by the Ethical Committee of the Cordeliers Research Center (Paris, France). All mouse experiments were randomized and blinded, and sample sizes were calculated to detect a statistically significant effect.
In vivo experimentations. Tumor engraftment was performed through subcutaneous injection of 3×10^5 MCA205 fibrosarcoma tumor cells (in 100 μl PBS) in the right flank of the mice. Tumor volume was monitored using a digital caliper and calculated according to the formula: volume=length×width×height/8×4/3 pi. When tumor reached 20 mm^3 on average, mice underwent fasting (48 hours without food but ad libitum access to water) or were given caloric restriction mimetics (CRMs) such as aspirin (Asp; 10 mg/kg i.p. in 200 μl phosphate buffered saline [PBS] five times per week), hydroxycitrate (HC; 5 mg/ml in drinking water daily) or spermidine (Spd; 50 mg/kg i.p. in 200 μl Earle's balanced salt solution three times per week), or were treated with mitoxantrone (MTX; 5.17 mg/kg i.p. in 200 μl PBS), or with the immune checkpoint inhibitors (ICIs) anti-PD-1 (10 mg/kg i.p. in 200 μl PBS) and/or anti-CTLA-4 (5 mg/kg i.p. in 200 μl PBS). Tumor size was carefully monitored up to 50 days post-MTX. Antitumor immunity induced by the treatment in cured mice was challenged by subcutaneously re-engrafting the same tumor (3×10^5 syngeneic MCA205 fibrosarcoma cells) in one flank while an antigenically unrelated cancer (3×10^5 syngeneic TC1 lung carcinoma cells) was implanted into the contralateral flank.
Statistical analyses. For tumor size comparison, Student unpaired t test or one-way ANOVA (Holm-Sidak) were performed. All statistical analyses were performed using GraphPad Prism version 6 for Windows (GraphPad Software, La Jolla, Calif., USA). Differences were considered significant when p value<0.05.

[4] = tested on: MCA205 fibrosarcoma cells; assay: Rechallenge of cured mice with the same tumor (MCA205); assay type: in vivo, C57B1/6 mice; settings: mice cured from MCA205 following MTX+ICIs+Spd treatment (FIG. 4G)
Description: (§1) In vivo experimentations. Tumor engraftment was performed through subcutaneous injection of 3×10^5 MCA205 fibrosarcoma tumor cells (in 100 μl PBS) in the right flank of the mice. […] Tumor size was carefully monitored up to 50 days post-MTX. Antitumor immunity induced by the treatment in cured mice was challenged by subcutaneously re-engrafting the same tumor (3×10^5 syngeneic MCA205 fibrosarcoma cells) in one flank while an antigenically unrelated cancer (3×10^5 syngeneic TC1 lung carcinoma cells) was implanted into the contralateral flank.

TC1 lung carcinoma cells = assay: Rechallenge of cured mice with antigenically unrelated TC1 cells in the contralateral flank; assay type: in vivo, C57B1/6 mice; settings: mice cured from MCA205 following MTX+ICIs+Spd treatment (FIG. 4G)
Description: as §1

[5] = tested on: immune infiltrate of MCA205 tumors; assay: Immunophenotyping of the tumor immune infiltrate by flow cytometry; assay type: in vivo, C57B1/6 mice; settings: data not shown
Description: 3 or 11 days post-chemotherapy (d3 or d11), mice were euthanized and the tumors were withdrawn and placed in gentleMACS C tubes (ref 130-096-334 from Miltenyi BiotecTM) previously filled with 1 ml of DMEM or RPMI medium, and immediately put on ice. […] Then, cells were stained with a live dead dye (ref L34959 from ThermoFisher ScientificTM) and an FCblock receptor targeting antibody. For the surface stainings, several anti-mouse fluorochrome-coupled antibodies were employed, that were for 1) myeloid cells “staining 1”: anti-CD45 APC-Fire750 (clone 30E-11, ref 130154 BiolegendTM), anti-Ly-6G PE (clone 1A8, ref 551461 BDTM), anti-Ly-6C FITC (clone AL-21, ref 553104, BDTM), anti-CD11b V450 (clone M1/70, ref 560455 BDTM), anti-CD11c PE-Cy7 (clone HL3, ref 558470 BDTM), anti-CD80 PerCP-Cy5.5 (16-10A1, ref 104722 BiolegendTM), and anti-MHC-II APC (clone M5/114.15.2, ref 107614 BiolegendTM) 2) T-cells “staining 2”: anti-CD3 APC (clone 17A2, ref 17-0032-82 eBioscienceTM), anti-CD8 PE (clone 53-6.7, ref 553032 BDTM), anti-CD4 PerCP-Cy5.5 (clone RM4-5, ref 45-0042-82 eBioscienceTM), anti-CD25 PE-Cy7 (clone PC61.5, ref 25-0251-82 InvitrogenTM), anti-ICOS BV421 (clone 7E.17G9, ref 564070 BDTM) and anti-PD-1 APC-Fire750 (clone 29F.1Al2, ref 135240 BiolegendTM) 3) PD-L1 expressing-cells “staining 4”: anti-CD45 AlexaFluor647 (clone 30E-11, ref 103-124 BiolegendTM), anti-PD-L1 BV421 (clone MIHS, ref 564716 BDTM) and anti-PD-L2 PE-Dazzle594 (clone TY25, ref 107215 BiolegendTM) 4) NKT cells “staining 5”: anti-CD3 FITC (clone 17A2, ref 11-00-32-82 eBioscienceTM) and anti-NK1.1 PerCP-Cy5.5 (clone PK136, ref 551114 BDTM). After the fixation and permeabilization of the cells (thanks to the Cytofix/Cytoperm kit, ref 554714 BDTM for stainings 1, 3, 4 and 5; and with the Foxp3/Transcription Factor kit, ref 00-5523-00 eBioscienceTM for staining 2), intracellular stainings were performed using for “staining 2”: anti-FoxP3 FITC (clone FJK-16s, ref 11-5773-82 eBioscienceTM) and for “staining 3”: anti-IFNg APC (clone XMG1.2, ref 505-810 BiolegendTM), anti-TNFα APC-Cy7 (clone MP6-XT22, ref 506344 BiolegendTM) and anti-IL-2 PE-Dazzle 594 (clone JES6-5H4, ref 503-840 BiolegendTM). Finally, cells were resuspended in FACS buffer and analyzed on a flow cytometer BD LSR II.

whole MCA205 tumors = assay: RNA-seq analyses of whole tumors; assay type: in vivo, C57B1/6 mice; settings: day 3 post-chemotherapy (MTX); data not shown

## CC1=NN(c2ccc(C(=O)O)cc2)C(=O)/C1=C\c1ccc(-c2cc(C)c(C)cc2[N+](=O)[O-])o1 [C646]
[1]
  Efficacy of anticancer chemotherapy with immunogenic cell death (ICD) inducers: able to improve the efficacy

## O=C1[O][Pt]2([NH][C@@H]3CCCC[C@H]3[NH]2)[O]C1=O [OXA, [(1R,2R.)-cyclohexane-1,2-diamine](ethanedioato-O,O′)platinum(II)]
MCA205 fibrosarcoma [2]; OXA+PD-1 blockade
  Cure rate: 40%

## O=C(O)C[C@]1(O)C[C@H](CCCCCCc2ccc(Cl)cc2Cl)OC1=O [SB2049901, (3R,5S)-re1-5-[6-(2,4-Dichlorophenyl)hexyl]tetrahydro-3-hydroxy-2-oxo-3-furanacetic acid]
[1]
  Efficacy of anticancer chemotherapy with immunogenic cell death (ICD) inducers: able to improve the efficacy

## NCCCCNCCCN [spermidine, H2N—(CH2)3-NH(CH2)4-NH2]
MCA205 fibrosarcoma [3]; MTX pre-treatment associated with the CRM, then CTLA-4/PD-1-blocking antibodies (FIG. 6)
  Tumor-free mice: 8 out of 10
MCA205 fibrosarcoma [3]
  Efficacy of MTX + ICIs (anti-PD-1 plus anti-CTLA-4) chemo-immunotherapy when the CRM is added: significantly improves tumor outcome
MCA205 fibrosarcoma [3]; listed as Spd
  Efficacy of MTX + ICIs (anti-PD-1 plus anti-CTLA-4) chemo-immunotherapy when the CRM is added: further enhanced
MCA205 fibrosarcoma [3]; pretreated with the CRM alone (without MTX), data not shown
  Response to CTLA-4/PD-1-blockade: did not respond
MCA205 fibrosarcoma [3]; spermidine i.p. 3 times per week + MTX chemotherapy + dual CTLA-4/PD-1-targeting immunotherapy
  Cure of established tumor: 7 out of 9
[4]
  Outgrowth of reinjected MCA205 cancer cells: did not led to the outgrowth
TC1 lung carcinoma cells
  Tumor formation by TC1 cancer cells injected into the opposite flank: yielded tumors
[5]; combined with MTX
  Increase in the density of total CD3+ and CD8+ T cell infiltrate: neither HC nor spermidine
[5]; day 3 post-chemotherapy (MTX)
  Myeloid infiltrate: no major increments
[5]; day 11 post-MTX
  Macrophage subpopulation with an M1 phenotype (Ly6G-F4/80+CD11c-CD11b+CD38+): expansion
Whole MCA205 tumors
  Evidence of local immunostimulation: failed to yield convincing evidence
MCA205 fibrosarcoma [2]; CRM added to OXA+PD-1 blockade
  Cure rate: 70%
  Cured mice: 7 out of 10
MCA205 fibrosarcoma [2]; figure legend FIG. 7
  Efficacy of OXA and anti-PD-1 combination when the CRM is added: further enhanced
[1]
  Efficacy of anticancer chemotherapy with immunogenic cell death (ICD) inducers: able to improve the efficacy
